Measurements: US9187464B2, “TRPV4 antagonists” (GlaxoSmithKline Intellectual Property (No. 2) Limited, priority 2011, dated 2015)
Structures can show the parent of a compound that is named as a salt.

Target: T1, human TRPV4 (Homo sapiens, UniProt Q9HBA0)
T1 construct: expressed in transfected cells; host or cells: HEK-293-MSR-II cells transduced with 1% BacMam virus
Assay: Ligand-gated assay (Fluo4 calcium, FLIPR; inhibition of agonist-induced activation)
Assay type: cell-based
Settings: HEK-293-MSR-II cells transduced with BacMam human TRPV4; agonist at EC80
Description: TRP channel activation/opening results in an influx of divalent and monovalent cations including calcium. The resulting changes in intracellular calcium were monitored using a calcium selective fluorescent dye Fluo4 (MDS Analytical Technologies). Dye loaded cells were initially exposed to test compound to verify a lack of agonist activity. Cells were subsequently activated by addition of an agonist and inhibition of the agonist-induced activation was recorded. Human embryonic kidney 293 cells stably expressing the macrophage scavenger receptor class II (HEK-293-MSR-II) and transduced with 1% BacMam (J. P. Condreay, S. M. Witherspoon, W. C. Clay and T. A. Kost, Proc Natl Acad Sci 96 (1999), pp. 127-132) virus expressing the human TRPV4 gene were plated at 15000 cells/well in a volume of 50 μL in a 384 well poly-D lysine coated plate. Cells were incubated for 24 hours at 37 degrees and 5% CO2. Media was then aspirated using a Tecan Plate-washer and replaced with 20 μL of dye loading buffer: HBSS, 500 uM Brilliant Black (MDS Analytical Technologies), 2 uM Fluo-4. Dye loaded plates were then incubated in the dark at room temperature for 1-1.5 hours. 10 μL of test compound diluted in HBSS (HBSS with 1.5 mM Calcium Chloride, 1.5 mM Magnesium Chloride and 10 mM HEPES. pH 7.4), +0.01% Chaps was added to the plate, incubated for 10 min at room temperature in the dark and then 10 μL of agonist was added at a final concentration equal to the agonist EC80. Calcium release was measured using the FLIPRtetra (MDS Analytical Technologies) or FLIPR384 (MDS Analytical Technologies).
IC50 between 0.1-10 nM (+++), >10-50 nM (++), >50-500 nM (+).

T1 sequence (Q9HBA0 whole entry): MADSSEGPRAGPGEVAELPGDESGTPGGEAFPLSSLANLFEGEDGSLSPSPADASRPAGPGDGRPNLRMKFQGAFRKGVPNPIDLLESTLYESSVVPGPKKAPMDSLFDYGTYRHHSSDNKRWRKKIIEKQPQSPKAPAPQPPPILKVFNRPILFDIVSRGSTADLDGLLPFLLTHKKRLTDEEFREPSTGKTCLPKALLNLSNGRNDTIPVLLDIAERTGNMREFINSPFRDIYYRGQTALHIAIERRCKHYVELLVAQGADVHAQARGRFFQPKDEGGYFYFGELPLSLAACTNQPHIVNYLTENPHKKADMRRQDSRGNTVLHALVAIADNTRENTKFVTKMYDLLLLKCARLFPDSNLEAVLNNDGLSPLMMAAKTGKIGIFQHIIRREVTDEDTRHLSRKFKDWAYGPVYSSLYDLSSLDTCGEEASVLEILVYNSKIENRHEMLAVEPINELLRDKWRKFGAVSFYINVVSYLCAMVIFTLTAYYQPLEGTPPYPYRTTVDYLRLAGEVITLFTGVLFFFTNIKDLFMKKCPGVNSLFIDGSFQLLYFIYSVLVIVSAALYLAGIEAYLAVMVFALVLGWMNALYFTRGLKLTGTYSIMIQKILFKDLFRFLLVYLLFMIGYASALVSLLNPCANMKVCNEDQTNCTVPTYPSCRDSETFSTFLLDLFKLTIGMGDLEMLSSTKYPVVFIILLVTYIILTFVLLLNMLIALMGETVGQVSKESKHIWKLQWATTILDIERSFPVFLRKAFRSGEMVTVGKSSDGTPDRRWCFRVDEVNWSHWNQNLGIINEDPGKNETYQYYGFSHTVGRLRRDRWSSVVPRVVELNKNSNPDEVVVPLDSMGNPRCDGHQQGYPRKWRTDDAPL

| SMILES | IC50 [µM] |
| --- | --- |
| N#Cc1cc(F)cc(-n2cc(CN3CC4(CCC[C@H](Cn5cnc6ccc(C#N)cc65)C4)OC3=O)nn2)c1 (stereo in doubt) [Example 103, 1-[((5S,7S)-3-{[1-(3-cyano-5-fluorophenyl)-1H-1,2,3-triazol-4-yl]methyl}-2-oxo-1-oxa-3-azaspiro[4.5]dec-7-yl)methyl]-1H-benzimidazole-6-carbonitrile] | 0.0001 to 0.01 |
| Cc1noc(N2C[C@@]3(CCC[C@](C)(Cn4cnc5ccc(C#N)cc54)C3)OC2=O)c1C [Example 57, 1-(((5S,7S)-3-(3,4-Dimethylisoxazol-5-yl)-7-methyl-2-oxo-1-oxa-3-azaspiro[4.5]decan-7-yl)methyl)-1H-benzo[d]imidazole-6-carbonitrile] | 0.0001 to 0.01 |
| CC(F)(F)c1cc(N2C[C@@]3(CCC[C@](C)(Cn4cnc5ccc(C#N)cc54)C3)OC2=O)on1 [Example 45, 1-(((5S,7S)-3-(3-(1,1-difluoroethyl)isoxazol-5-yl)-7-methyl-2-oxo-1-oxa-3-azaspiro[4.5]decan-7-yl)methyl)-1H-benzo[d]imidazole-6-carbonitrile] | 0.0001 to 0.01 |
| N#Cc1ccc2ncn(C[C@H]3CCC[C@]4(C3)CN(Cc3nnc(-c5ccccc5)[nH]3)C(=O)O4)c2c1 [Example 71, 1-({(5S,7S)-2-oxo-3-[(3-phenyl-1H-1,2,4-triazol-5-yl)methyl]-1-oxa-3-azaspiro[4.5]dec-7-yl}methyl)-1H-benzimidazole-6-carbonitrile] | 0.05 to 0.5 |
| N#Cc1ccc2ncn(C[C@H]3CCC[C@]4(C3)CN(Cc3cn(-c5ccc(C(F)(F)F)cc5)nn3)C(=O)O4)c2c1 [Example 102, 1-{[(5S,7S)-2-oxo-3-({1-[4-(trifluoromethyl)phenyl]-1H-1,2,3-triazol-4-yl}methyl)-1-oxa-3-azaspiro[4.5]dec-7-yl]methyl}-1H-benzimidazole-6-carbonitrile] | 0.0001 to 0.01 |
| Cn1cc(-c2cccc(CN3C[C@@]4(CCC[C@](C)(Cn5cnc6ccc(C#N)cc65)C4)OC3=O)n2)cn1 [Example 161, 1-(((5S,7S)-7-methyl-3-((6-(1-methyl-1H-pyrazol-4-yl)pyridin-2-yl)methyl)-2-oxo-1-oxa-3-azaspiro[4.5]decan-7-yl)methyl)-1H-benzo[d]imidazole-6-carbonitrile] | 0.0001 to 0.01 |
| CC(C)(CN1C[C@@]2(CCC[C@H](Cn3cnc4ccc(C#N)cc43)C2)OC1=O)c1nc(C2CCCC2)no1 [Example 77, 1-({(5S,7S)-3-[2-(3-cyclopentyl-1,2,4-oxadiazol-5-yl)-2-methylpropyl]-2-oxo-1-oxa-3-azaspiro[4.5]dec-7-yl}methyl)-1H-benzimidazole-6-carbonitrile] | 0.0001 to 0.01 |
| N#Cc1ccc2ncn(C[C@H]3CCC[C@]4(C3)CN(Cc3cn(-c5cccc(F)c5)nn3)C(=O)O4)c2c1 [Example 94, 1-[((5S,7S)-3-{[1-(3-fluorophenyl)-1H-1,2,3-triazol-4-yl]methyl}-2-oxo-1-oxa-3-azaspiro[4.5]dec-7-yl)methyl]-1H-benzimidazole-6-carbonitrile] | 0.01 to 0.05 |
| CC(C)c1cc(N2C[C@@]3(CCC[C@](C)(Cn4cnc5ccc(C#N)cc54)C3)OC2=O)on1 [Example 30, 1-({(5S,7S)-7-methyl-3-[3-(1-methylethyl)-5-isoxazolyl]-2-oxo-1-oxa-3-azaspiro[4.5]dec-7-yl}methyl)-1H-benzimidazole-6-carbonitrile] | 0.01 to 0.05 |
| N#Cc1ccc2ncn(C[C@H]3CCC[C@]4(C3)CN(Cc3cncc(-c5ccccc5)c3)C(=O)O4)c2c1 [Example 72, 1-({(5S,7S)-2-oxo-3-[(5-phenyl-3-pyridinyl)methyl]-1-oxa-3-azaspiro[4.5]dec-7-yl}methyl)-1H-benzimidazole-6-carbonitrile trifluoroacetate] | 0.05 to 0.5 |
| CCc1cccnc1N1C[C@@]2(CCC[C@](C)(Cn3cnc4ccc(C#N)cc43)C2)OC1=O [Example 129, 1-(((5S,7S)-3-(3-ethylpyridin-2-yl)-7-methyl-2-oxo-1-oxa-3-azaspiro[4.5]decan-7-yl)methyl)-1H-benzo[d]imidazole-6-carbonitrile] | 0.01 to 0.05 |
| CC(C)Cc1cc(N2C[C@@]3(CCC[C@](C)(Cn4cnc5ccc(C#N)cc54)C3)OC2=O)on1 [Example 31, 1-({(5S,7S)-7-methyl-3-[3-(2-methylpropyl)-5-isoxazolyl]-2-oxo-1-oxa-3-azaspiro[4.5]dec-7-yl}methyl)-1H-benzimidazole-6-carbonitrile] | 0.0001 to 0.01 |

Other lines, results leading:

| IC50 [µM] | SMILES |
| --- | --- |
| 0.0001 to 0.01 | CC(C)(C)c1ncc(N2C[C@@]3(CCC[C@](C)(Cn4cnc5ccc(C#N)cc54)C3)OC2=O)cn1 [Example 134, 1-(((5S,7S)-3-(2-(tert-butyl)pyrimidin-5-yl)-7-methyl-2-oxo-1-oxa-3-azaspiro[4.5]decan-7-yl)methyl)-1H-benzo[d]imidazole-6-carbonitrile] |
| 0.01 to 0.05 | CC(C)(OCCOP(C)(C)=O)c1cnc(N2C[C@@]3(CCC[C@](C)(Cn4cnc5ccc(C#N)cc54)C3)OC2=O)cn1 [Example 164, 2-((2-(5-((5S,7S)-7-((6-cyano-1H-benzo[d]imidazol-1-yl)methyl)-7-methyl-2-oxo-1-oxa-3-azaspiro[4.5]decan-3-yl)pyrazin-2-yl)propan-2-yl)oxy)ethyl dimethylphosphinate] |
| 0.0001 to 0.01 | CC(C)(C)c1cnc(N2C[C@@]3(CCC[C@](C)(Cn4cnc5ccc(C#N)cc54)C3)OC2=O)nc1 [Example 49, 1-(((5S,7S)-3-(5-(tert-butyl)pyrimidin-2-yl)-7-methyl-2-oxo-1-oxa-3-azaspiro[4.5]decan-7-yl)methyl)-1H-benzo[d]imidazole-6-carbonitrile] |
| 0.0001 to 0.01 | CC(C)(O)c1cnc(N2C[C@@]3(CCC[C@](C)(Cn4cnc5ccc(C#N)cc54)C3)OC2=O)cn1 [Example 147, 1-(((5S,7S)-3-(5-(2-hydroxypropan-2-yl)pyrazin-2-yl)-7-methyl-2-oxo-1-oxa-3-azaspiro[4.5]decan-7-yl)methyl)-1H-benzo[d]imidazole-6-carbonitrile] |
| 0.0001 to 0.01 | CN(C)c1ccc(N2C[C@@]3(CCC[C@](C)(Cn4cnc5ccc(C#N)cc54)C3)OC2=O)cn1 [Example 19, 1-(((5S,7S)-3-(6-(Dimethylamino)pyridin-3-yl)-7-methyl-2-oxo-1-oxa-3-azaspiro[4.5]decan-7-yl)methyl)-1H-benzo[d]imidazole-6-carbonitrile] |
| 0.0001 to 0.01 | COC(C)(C)c1cnc(N2C[C@@]3(CCC[C@](C)(Cn4cnc5ccc(C#N)cc54)C3)OC2=O)cn1 [Example 162, 1-(((5S,7S)-3-(5-(2-methoxypropan-2-yl)pyrazin-2-yl)-7-methyl-2-oxo-1-oxa-3-azaspiro[4.5]decan-7-yl)methyl)-1H-benzo[d]imidazole-6-carbonitrile] |
| 0.0001 to 0.01 | Cc1ccncc1N1C[C@@]2(CCC[C@](C)(Cn3cnc4ccc(C#N)cc43)C2)OC1=O [Example 146, 1-(((5S,7S)-7-methyl-3-(4-methylpyridin-3-yl)-2-oxo-1-oxa-3-azaspiro[4.5]decan-7-yl)methyl)-1H-benzo[d]imidazole-6-carbonitrile] |
| 0.01 to 0.05 | CC(C)(CO)c1cnc(N2C[C@@]3(CCC[C@](C)(Cn4cnc5ccc(C#N)cc54)C3)OC2=O)cn1 [Example 168, 1-(((5S,7S)-3-(5-(1-hydroxy-2-methylpropan-2-yl)pyrazin-2-yl)-7-methyl-2-oxo-1-oxa-3-azaspiro[4.5]decan-7-yl)methyl)-1H-benzo[d]imidazole-6-carbonitrile] |
